Data taken from patent US20200390100A1, “SUBSTITUTED N-HETEROCYCLYL- AND N-HETEROARYL-TETRAHYDROPYRIMIDINONES AND THE SALTS THEREOF, AND THE USE OF SAME AS HERBICIDAL ACTIVE SUBSTANCES” (Bayer Aktiengesellschaft, priority 2017, published 2020).

What was measured:
Format in all cases: in vivo
Amaranthus retroflexus [1] = assay: Herbicidal pre-emergence action (Part 2), 1280 g/ha; details: application rate 1280 g/ha, scored visually after about 3 weeks, Table D6
Procedure, shortened: (§1)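 Pre-emergence, sandy loam pots, seeds covered with soil. WP/EC formulation + 0.5% additive sprayed on soil surface, 600 L/ha water. Greenhouse ~3 wk; visual % damage vs untreated (100% = dead, 0% = as control).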

Echinochloa crus-galli [2] = assay: as above; details: application rate 1280 g/ha, scored visually after about 3 weeks, Table D1
Procedure, shortened: as §1

Stellaria media [3] = assay: as above; details: application rate 1280 g/ha, scored visually after about 3 weeks, Table D8
Procedure, shortened: as §1

Abutilon theophrasti [4] = assay: as above; details: application rate 1280 g/ha, scored visually after about 3 weeks, Table D5
Procedure, shortened: as §1

Poa annua [5] = assay: as above; details: application rate 1280 g/ha, scored visually after about 3 weeks, Table D3
Procedure, shortened: as §1

Setaria viridis [6] = assay: as above; details: application rate 1280 g/ha, scored visually after about 3 weeks, Table D4
Procedure, shortened: as §1

Lolium rigidum = assay: as above; details: application rate 1280 g/ha, scored visually after about 3 weeks, Table D2
Procedure, shortened: as §1

Matricaria inodora [7] = assay: as above; details: application rate 1280 g/ha, scored visually after about 3 weeks, Table D7
Procedure, shortened: as §1

Polygonum convolvulus = assay: Pre-emergence herbicidal action, greenhouse, 320 g/ha; details: application rate 320 g/ha, scored visually after about 3 weeks vs untreated controls
Procedure, shortened: (§2)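 Visual % damage versus untreated pots was read about 3 weeks after treatment, where 0% means growth as in controls and 100% means dead plants. Compounds were applied as WP or EC in water plus 0.5% additive onto the covering soil over freshly sown seeds.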

Digitaria sanguinalis = assay: as above; details: application rate 320 g/ha, Table B9
Procedure, shortened: as §2

Amaranthus retroflexus [8] = assay: Herbicidal post-emergence action (Part 2), 1280 g/ha; details: application rate 1280 g/ha, rated visually after about 3 weeks, Table C5
Procedure, shortened: (§3)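 Visual percent damage scored versus untreated plants roughly 3 weeks after treatment, where 100% means plants died. Spray was applied post-emergence to one-leaf-stage weeds raised in sandy loam under greenhouse conditions, using 0.5% additive and 600 L/ha water.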

Echinochloa crus-galli [9] = assay: as above; details: post-emergence (Part 2), application rate 1280 g/ha, rated visually after about 3 weeks vs untreated controls
Procedure, shortened: as §3

Stellaria media [10] = assay: as above; details: application rate 1280 g/ha, rated visually after about 3 weeks, Table C7
Procedure, shortened: as §3

Abutilon theophrasti [11] = assay: as above; details: application rate 1280 g/ha, rated visually after about 3 weeks, Table C4
Procedure, shortened: as §3

Poa annua [12] = assay: as above; details: application rate 1280 g/ha, rated visually after about 3 weeks, Table C2
Procedure, shortened: as §3

Setaria viridis [13] = assay: as above; details: application rate 1280 g/ha, rated visually after about 3 weeks, Table C3
Procedure, shortened: as §3

Matricaria inodora [14] = assay: as above; details: application rate 1280 g/ha, rated visually after about 3 weeks, Table C6
Procedure, shortened: as §3

CC1CC(O)N(c2cc(C(C)(C)C)on2)C(=O)N1C (centres unmarked) [I.41-162, 1-(5-tert-Butyl-1,2-oxazol-3-yl)-6-hydroxy-3,4-dimethyltetrahydropyrimidin-2(1H)-one]
100%: Amaranthus retroflexus (Amaranthus retroflexus [1]) | Echinochloa crus-galli (Echinochloa crus-galli [2]) | Stellaria media (Stellaria media [3]) | Abutilon theophrasti (Abutilon theophrasti [4]) | Poa Annua (Poa annua [5]) | Setaria viridis (Setaria viridis [6]) | Lolium rigidum (Lolium rigidum) | Matricaria inodora (Matricaria inodora [7]) | Polygonum convolvulus (efficacy in %) (Polygonum convolvulus) | Digitaria sanguinalis (efficacy in %) (Digitaria sanguinalis) | Amaranthus retroflexus (Amaranthus retroflexus [8]) | Echinochloa crus-galli (Echinochloa crus-galli [9]) | Stellaria media (Stellaria media [10]) | Abutilon theophrasti (Abutilon theophrasti [11]) | Poa Annua (Poa annua [12]) | Setaria viridis (Setaria viridis [13]) | Matricaria inodora (Matricaria inodora [14])
